From ChEMBL document CHEMBL1159133, “A cembranolide diterpene farnesyl protein transferase inhibitor from the marine soft coral Lobophytum cristagalli” (Bioorg Med Chem Lett, 1996)

Columns and labels:
[1] = biological target: T1, Protein farnesyltransferase (Homo sapiens, UniProt P49354+P49356); test: Kinetic parameter for inhibition of farnesyl protein transferase; assay type: protein-complex assay
[2] = biological target: T1, Protein farnesyltransferase; test: Inhibition of recombinant human farnesyl protein transferase; assay type: protein-complex assay
[3] = biological target: Geranylgeranyl transferase type I (Homo sapiens, UniProt P49354+P53609); test: Inhibitory activity against recombinant human Geranylgeranyl transferase type I; assay type: protein-complex assay
[4] = biological target: T1, Protein farnesyltransferase; test: Percent inhibition of H-Ras processing in COS cells at 5.3 uM; assay type: cell-based

Ki [1]: 170 nM | IC50 [2]: 150 nM | IC50 [3]: 5300 nM | inhibition [4]: 26%
SMILES: C=C1C(=O)O[C@H]2[C@H]1[C@@H](OC(C)=O)C/C(C)=C/CC/C(C)=C/CC[C@@]1(C)O[C@H]21
